Results taken from ChEMBL document CHEMBL1201862, “PubChem BioAssay data set” (2004).
The source made the active and inactive calls.

Experiments:
CAAX prenyl protease 2 = CAAX prenyl protease 2 (Saccharomyces cerevisiae S288c, UniProt Q03530); assay type: biochemical
[1] = molecular target: Glyceraldehyde-3-phosphate dehydrogenase (Homo sapiens, UniProt P04406)
[2] = molecular target: Alkaline phosphatase, placental type (Homo sapiens, UniProt P05187); experiment: PLAP enzyme inhibitors, confirmation, biochemical, luminescence (AID 1512); assay type: functional
Cannabinoid receptor 2 [3] = molecular target: T1, Cannabinoid receptor 2 (Homo sapiens, UniProt P34972); experiment: SAR analysis of antagonists of the Cannabinoid Receptor 2 using an Image-Based Assay - Set 2. [Related pubchem assays (depositor defined):AID1961, AID1965]; assay type: functional
[4] = molecular target: G-protein coupled receptor 55 (Homo sapiens, UniProt Q9Y2T6); experiment: SAR analysis of selective Agonists of GPR55 using an Image-Based Assay - Set 2. [Related pubchem assays (depositor defined):AID1961, AID1965]; assay type: functional
Cannabinoid receptor 2 [5] = molecular target: T1, Cannabinoid receptor 2; experiment: SAR analysis of agonists of the Cannabinoid Receptor 2 using an Image-Based Assay - Set 2. [Related pubchem assays (depositor defined):AID1961, AID1965]; assay type: functional
[6] = molecular target: T2, G-protein coupled receptor 35 (Homo sapiens, UniProt Q9HC97); experiment: SAR analysis of Agonists of the GPR35 Receptor using an Image-Based Assay - Set 3. [Related pubchem assays (depositor defined):AID1961, AID1965]; assay type: functional
Cannabinoid receptor 1 [7] = molecular target: T3, Cannabinoid receptor 1 (Homo sapiens, UniProt P21554); experiment: SAR analysis of antagonists of the Cannabinoid Receptor 1 using an Image-Based Assay - Set 3. [Related pubchem assays (depositor defined):AID1961, AID1965]; assay type: functional
Cannabinoid receptor 1 [8] = molecular target: T3, Cannabinoid receptor 1; experiment: SAR analysis of agonists of the Cannabinoid Receptor 1 using an Image-Based Assay - Set 3. [Related pubchem assays (depositor defined):AID1961, AID1965]; assay type: functional
[9] = molecular target: T2, G-protein coupled receptor 35; experiment: SAR analysis of Antagonists of the GPR35 Receptor using an Image-Based Assay - Set 4. [Related pubchem assays (depositor defined):[…]]; assay type: functional
[10] = molecular target: Diphosphomevalonate decarboxylase (Streptococcus pneumoniae serotype 2 (strain D39 / NCTC 7466), UniProt Q9FD53); experiment: S. pneumoniae DPM-DC inhibition retest, confirmation, biochemical, cuvette format, coupled NADH fluorescence (AID 1028); assay type: functional
Phosphomannomutase 2 = Phosphomannomutase 2 (Homo sapiens, UniProt O15305); experiment: Counter screen SAR assay for PMM2 inhibitors via a fluorescence intensity assay. [Related pubchem assays (depositor defined):AID1545, AID1574]
[11] = molecular target: Phosphoethanolamine/phosphocholine phosphatase (Homo sapiens, UniProt Q8TCT1); experiment: SAR assay for compounds that inhibit PHOSPHO1. [Related pubchem assays (depositor defined):AID1545, AID1565, AID1574]
[12] = molecular target: T4, Alkaline phosphatase, tissue-nonspecific isozyme (Homo sapiens, UniProt P05186); experiment: human TNAP enzyme inhibitors, SAR follow-up, biochemical, luminescent, dose response (AID 1056)
T4 sequence (P05186 whole entry): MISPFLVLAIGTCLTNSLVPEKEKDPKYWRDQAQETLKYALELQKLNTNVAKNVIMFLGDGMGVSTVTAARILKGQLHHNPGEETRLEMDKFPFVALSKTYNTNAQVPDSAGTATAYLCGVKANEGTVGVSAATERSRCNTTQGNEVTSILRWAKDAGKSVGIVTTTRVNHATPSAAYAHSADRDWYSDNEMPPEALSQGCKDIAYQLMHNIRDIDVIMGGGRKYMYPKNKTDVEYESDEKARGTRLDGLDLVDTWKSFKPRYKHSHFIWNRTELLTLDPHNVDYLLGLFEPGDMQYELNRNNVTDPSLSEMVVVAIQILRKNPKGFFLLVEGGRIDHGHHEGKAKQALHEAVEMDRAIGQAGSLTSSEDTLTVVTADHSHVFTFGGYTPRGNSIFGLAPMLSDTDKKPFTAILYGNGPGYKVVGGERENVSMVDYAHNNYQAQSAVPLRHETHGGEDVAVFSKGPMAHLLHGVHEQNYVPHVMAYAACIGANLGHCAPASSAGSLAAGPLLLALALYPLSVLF

T-cell = experiment: inhibitors of CD8+ T cell–vesicle binding, dose response, mouse 2C CD8+ T cells, flow cytometry (AID 485284); assay type: functional
[13] = molecular target: Envelope glycoprotein gp160 (Human immunodeficiency virus 1, UniProt Q6QLK5); experiment: inhibitors of HIV fusion peptide binding, primary screen, biochemical, uHTS, fluorescence dequenching (AID 1986)
SUMO-activating enzyme [14] = molecular target: T5, SUMO-activating enzyme (Homo sapiens, UniProt Q9UBT2); experiment: SUMOylation inhibitor hit validation, confirmation, SUMOylation inhibitor project, biochemical, AlphaScreen (AID 2018); assay type: functional
SUMO-activating enzyme [15] = molecular target: T5, SUMO-activating enzyme; experiment: inhibitors of in vitro SUMOylation cascade, primary screen, biochemical, HTRF, uHTS (AID 2006); assay type: protein-complex assay
[16] = molecular target: Induced myeloid leukemia cell differentiation protein Mcl-1 (Homo sapiens, UniProt Q07820); assay type: functional
[17] = molecular target: Eukaryotic translation initiation factor 4E (Mus musculus, UniProt P63073); experiment: eIF4E–eIF4G protein interaction inhibitors, dose response, biochemical, TR-FRET (AID 855); assay type: functional;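 further: potency for disrupting eIF4E binding to eIF4GI seen as loss of FRET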
[18] = molecular target: T6, Small ubiquitin-related modifier 2 (Homo sapiens, UniProt P61956); experiment: SUMO2–SIM peptide binding inhibitors, dose response, selectivity assay for SUMO1 interaction inhibitor project, biochemical, fluorescence polarization, uHTS hits (AID 624385); assay type: functional; details: read-out: IC50_Mean
[19] = molecular target: T7, Small ubiquitin-related modifier 1 (Homo sapiens, UniProt P63165); experiment: inhibitors of SUMO1 peptide binding, dose response, biochemical, fluorescence polarization, uHTS hits (AID 624382); assay type: functional; details: read-out: IC50_Mean
[20] = molecular target: T6, Small ubiquitin-related modifier 2; experiment: inhibitors of SUMO2 protein-protein interaction, dose response, selectivity assay for SUMO1 interaction inhibitor project, biochemical, FRET, human SUMO2, uHTS hits (AID 624384); assay type: functional; details: read-out: IC50_Mean
[21] = molecular target: T7, Small ubiquitin-related modifier 1; experiment: inhibitors of SUMO1 partner interactions, dose response, biochemical, FRET (AID 624383); assay type: functional; details: read-out: IC50_Mean

T6 sequence (P61956 whole entry): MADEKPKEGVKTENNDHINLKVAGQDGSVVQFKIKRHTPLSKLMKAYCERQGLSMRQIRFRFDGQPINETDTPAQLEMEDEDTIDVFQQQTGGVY
T7 sequence (P63165 whole entry): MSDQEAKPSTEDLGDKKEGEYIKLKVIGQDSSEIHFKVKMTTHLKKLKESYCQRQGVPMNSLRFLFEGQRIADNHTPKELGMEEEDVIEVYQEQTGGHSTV
T3 sequence (P21554 whole entry): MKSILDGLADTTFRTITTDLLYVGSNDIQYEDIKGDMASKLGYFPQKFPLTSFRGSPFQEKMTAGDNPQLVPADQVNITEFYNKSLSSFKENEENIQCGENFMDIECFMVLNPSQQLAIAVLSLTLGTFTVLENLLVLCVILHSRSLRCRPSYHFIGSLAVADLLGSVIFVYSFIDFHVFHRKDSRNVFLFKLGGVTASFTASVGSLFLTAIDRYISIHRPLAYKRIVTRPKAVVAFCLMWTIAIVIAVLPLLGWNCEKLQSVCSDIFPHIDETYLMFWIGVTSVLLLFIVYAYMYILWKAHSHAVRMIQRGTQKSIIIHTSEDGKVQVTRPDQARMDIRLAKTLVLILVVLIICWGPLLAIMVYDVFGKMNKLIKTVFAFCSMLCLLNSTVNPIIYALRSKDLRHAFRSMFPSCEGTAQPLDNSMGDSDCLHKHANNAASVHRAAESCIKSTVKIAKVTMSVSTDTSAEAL
T1 sequence (P34972 whole entry): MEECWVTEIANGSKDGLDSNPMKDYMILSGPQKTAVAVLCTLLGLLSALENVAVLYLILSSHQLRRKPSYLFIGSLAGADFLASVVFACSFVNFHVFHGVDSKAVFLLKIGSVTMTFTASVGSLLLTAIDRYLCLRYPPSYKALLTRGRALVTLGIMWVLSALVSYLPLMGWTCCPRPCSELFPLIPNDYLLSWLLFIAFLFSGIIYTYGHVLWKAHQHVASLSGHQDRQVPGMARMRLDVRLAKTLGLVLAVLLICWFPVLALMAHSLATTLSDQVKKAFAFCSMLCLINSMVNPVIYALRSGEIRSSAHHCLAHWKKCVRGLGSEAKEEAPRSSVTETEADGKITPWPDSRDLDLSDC
T2 sequence (Q9HC97 whole entry): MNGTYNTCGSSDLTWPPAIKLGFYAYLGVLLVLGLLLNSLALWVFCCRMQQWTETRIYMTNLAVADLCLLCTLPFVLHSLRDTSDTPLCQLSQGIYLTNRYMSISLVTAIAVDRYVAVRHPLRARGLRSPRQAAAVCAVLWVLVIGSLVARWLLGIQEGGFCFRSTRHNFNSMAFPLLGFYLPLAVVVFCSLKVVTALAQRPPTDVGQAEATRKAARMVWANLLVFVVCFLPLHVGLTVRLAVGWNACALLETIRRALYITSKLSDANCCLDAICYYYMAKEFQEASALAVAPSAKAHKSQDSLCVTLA
T5 sequence (Q9UBE0 whole entry): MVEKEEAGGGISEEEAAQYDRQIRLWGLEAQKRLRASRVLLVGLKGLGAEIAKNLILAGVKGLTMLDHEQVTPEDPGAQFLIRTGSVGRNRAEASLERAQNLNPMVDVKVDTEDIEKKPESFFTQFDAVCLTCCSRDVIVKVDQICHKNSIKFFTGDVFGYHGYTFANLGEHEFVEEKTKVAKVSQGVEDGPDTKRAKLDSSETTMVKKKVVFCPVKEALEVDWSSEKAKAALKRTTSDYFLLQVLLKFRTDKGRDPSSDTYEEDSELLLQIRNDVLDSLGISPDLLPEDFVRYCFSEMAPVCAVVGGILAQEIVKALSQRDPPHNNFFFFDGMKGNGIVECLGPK
T5 sequence (Q9UBT2 whole entry): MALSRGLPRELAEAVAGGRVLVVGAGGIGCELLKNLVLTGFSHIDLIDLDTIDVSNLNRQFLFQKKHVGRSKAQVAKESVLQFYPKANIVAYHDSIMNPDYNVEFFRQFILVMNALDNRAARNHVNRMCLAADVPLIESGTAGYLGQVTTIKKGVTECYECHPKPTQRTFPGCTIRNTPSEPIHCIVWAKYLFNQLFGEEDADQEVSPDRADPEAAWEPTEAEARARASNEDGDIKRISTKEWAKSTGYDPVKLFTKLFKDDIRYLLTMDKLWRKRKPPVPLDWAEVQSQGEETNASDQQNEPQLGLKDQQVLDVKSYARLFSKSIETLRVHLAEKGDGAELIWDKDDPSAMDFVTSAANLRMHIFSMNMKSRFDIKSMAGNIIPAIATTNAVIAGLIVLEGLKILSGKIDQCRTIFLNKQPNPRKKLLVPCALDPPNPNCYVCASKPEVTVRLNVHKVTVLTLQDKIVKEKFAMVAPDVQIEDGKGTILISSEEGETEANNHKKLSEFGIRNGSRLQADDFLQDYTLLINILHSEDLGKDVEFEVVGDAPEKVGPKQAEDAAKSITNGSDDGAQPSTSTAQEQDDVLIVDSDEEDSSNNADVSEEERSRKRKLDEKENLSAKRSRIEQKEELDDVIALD
Chain of Alkaline phosphatase, placental type (P05187 whole entry): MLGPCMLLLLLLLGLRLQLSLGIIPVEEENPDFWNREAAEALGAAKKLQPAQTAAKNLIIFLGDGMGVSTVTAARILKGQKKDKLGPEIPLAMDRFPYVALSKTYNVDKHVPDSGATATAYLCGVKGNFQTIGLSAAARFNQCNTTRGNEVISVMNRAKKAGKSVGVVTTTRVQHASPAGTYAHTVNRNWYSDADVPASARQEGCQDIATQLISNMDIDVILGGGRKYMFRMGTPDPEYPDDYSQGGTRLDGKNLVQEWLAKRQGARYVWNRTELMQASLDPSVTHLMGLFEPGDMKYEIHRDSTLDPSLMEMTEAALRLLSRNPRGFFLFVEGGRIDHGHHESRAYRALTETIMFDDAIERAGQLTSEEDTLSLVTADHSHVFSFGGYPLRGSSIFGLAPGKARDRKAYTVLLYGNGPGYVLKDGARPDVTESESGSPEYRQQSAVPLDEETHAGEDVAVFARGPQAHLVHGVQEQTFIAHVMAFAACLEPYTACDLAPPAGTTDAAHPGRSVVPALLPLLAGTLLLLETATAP
Chain of Envelope glycoprotein gp160 (Q6QLK5 whole entry, the tested form may be a part): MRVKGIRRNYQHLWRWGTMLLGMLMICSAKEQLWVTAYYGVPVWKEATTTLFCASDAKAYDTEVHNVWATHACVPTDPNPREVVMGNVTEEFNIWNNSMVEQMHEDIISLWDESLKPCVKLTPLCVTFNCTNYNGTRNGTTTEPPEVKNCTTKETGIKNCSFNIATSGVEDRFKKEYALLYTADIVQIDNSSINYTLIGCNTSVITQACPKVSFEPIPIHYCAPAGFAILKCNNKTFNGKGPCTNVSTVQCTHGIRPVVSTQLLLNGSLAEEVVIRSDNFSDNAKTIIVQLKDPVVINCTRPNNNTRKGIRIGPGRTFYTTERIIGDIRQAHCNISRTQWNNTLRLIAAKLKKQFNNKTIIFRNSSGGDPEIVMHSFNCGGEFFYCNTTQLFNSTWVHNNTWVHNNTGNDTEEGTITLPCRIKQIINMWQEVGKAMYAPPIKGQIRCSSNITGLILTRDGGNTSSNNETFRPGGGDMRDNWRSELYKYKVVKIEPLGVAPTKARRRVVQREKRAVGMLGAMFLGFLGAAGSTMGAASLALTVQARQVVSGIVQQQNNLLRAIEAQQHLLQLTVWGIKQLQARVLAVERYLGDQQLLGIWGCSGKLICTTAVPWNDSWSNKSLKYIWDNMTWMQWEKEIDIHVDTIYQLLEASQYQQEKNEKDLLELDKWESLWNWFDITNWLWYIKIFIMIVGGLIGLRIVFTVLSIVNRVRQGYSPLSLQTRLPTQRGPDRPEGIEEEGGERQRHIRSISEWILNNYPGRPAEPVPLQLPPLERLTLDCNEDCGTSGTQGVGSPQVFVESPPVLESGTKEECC
Chain of Phosphoethanolamine/phosphocholine phosphatase (Q8TCT1 whole entry): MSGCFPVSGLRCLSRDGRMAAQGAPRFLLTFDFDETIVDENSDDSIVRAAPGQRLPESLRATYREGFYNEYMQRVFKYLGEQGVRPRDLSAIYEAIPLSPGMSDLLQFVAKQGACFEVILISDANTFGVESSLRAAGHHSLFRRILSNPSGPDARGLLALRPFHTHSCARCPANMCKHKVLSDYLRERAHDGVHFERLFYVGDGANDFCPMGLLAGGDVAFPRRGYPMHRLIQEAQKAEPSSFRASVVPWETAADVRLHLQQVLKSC
Chain of Eukaryotic translation initiation factor 4E (P63073 whole entry): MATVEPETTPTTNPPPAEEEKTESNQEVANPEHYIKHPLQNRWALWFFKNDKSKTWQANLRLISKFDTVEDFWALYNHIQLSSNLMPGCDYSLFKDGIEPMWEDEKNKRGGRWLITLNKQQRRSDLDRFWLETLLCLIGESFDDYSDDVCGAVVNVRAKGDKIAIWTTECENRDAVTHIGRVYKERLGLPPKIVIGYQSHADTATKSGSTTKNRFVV
Chain of CAAX prenyl protease 2 (Q03530 whole entry): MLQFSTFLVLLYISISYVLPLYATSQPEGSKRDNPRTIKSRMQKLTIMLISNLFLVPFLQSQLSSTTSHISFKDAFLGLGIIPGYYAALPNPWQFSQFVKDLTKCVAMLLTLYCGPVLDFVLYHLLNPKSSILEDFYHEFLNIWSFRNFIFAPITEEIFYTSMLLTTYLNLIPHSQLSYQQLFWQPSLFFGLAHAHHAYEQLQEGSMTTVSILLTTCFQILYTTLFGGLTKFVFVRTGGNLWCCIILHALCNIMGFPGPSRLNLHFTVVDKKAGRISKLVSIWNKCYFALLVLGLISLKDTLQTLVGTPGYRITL
Chain of Phosphomannomutase 2 (O15305 whole entry): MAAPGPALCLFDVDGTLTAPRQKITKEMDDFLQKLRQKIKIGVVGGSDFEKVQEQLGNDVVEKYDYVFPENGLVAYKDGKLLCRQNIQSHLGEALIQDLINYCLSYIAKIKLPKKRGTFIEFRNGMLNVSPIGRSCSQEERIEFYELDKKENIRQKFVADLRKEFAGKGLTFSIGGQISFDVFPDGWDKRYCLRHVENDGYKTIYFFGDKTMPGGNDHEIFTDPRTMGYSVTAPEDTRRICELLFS

CCN(CC)CCN(C(=O)c1cc2ccccc2cc1OC)c1nc2ccc(F)cc2s1 was tested, and the AC50 (CAAX prenyl protease 2) was 6.98 µM (active).
In the case of CN(C)C(=O)c1cc(-c2ccc(Cl)cc2Cl)n[nH]1, the IC50 [1] is reported as > 100 µM (not active) and the IC50 [2] is reported as > 100 µM (inactive).
With Cc1cccc(N2CCN(C(=O)c3cccc(S(=O)(=O)N4CCOCC4)c3)CC2)c1C the IC50 (Cannabinoid receptor 2 [3]) was > 32 µM (inactive), the EC50 [4] was > 32 µM (inactive) and the EC50 (Cannabinoid receptor 2 [5]) was > 32 µM (inactive). For the same molecule, the EC50 [6] was > 32 µM (inactive), the IC50 (Cannabinoid receptor 1 [7]) was > 32 µM (inactive) and the EC50 (Cannabinoid receptor 1 [8]) was > 32 µM (inactive). The IC50 [9] was > 32 µM (inactive).
In the case of CN(C)C(=O)c1cccc(-n2sc3ccccc3c2=O)c1, the IC50 [10] is reported as 24.4 µM (active), the IC50 (Phosphomannomutase 2) is reported as 76.4 µM (active) and the IC50 [11] is reported as 0.139 µM (active). For the same molecule, the IC50 [12] was > 100 µM (inactive).
With COc1ccc(C2=CC(=O)CC(c3ccc(OC)cc3)C2)cc1 (centres undefined) the EC50 (T-cell) was 4.09 µM (active).
With O=C(O)c1cccc2c1NC(c1cccc([N+](=O)[O-])c1)C1CC(Sc3ccccc3[N+](=O)[O-])C(Cl)C21 (centres undefined) the IC50 [13] was 12.5 µM (active), the IC50 (SUMO-activating enzyme [14]) was 2.43 µM (active) and the IC50 (SUMO-activating enzyme [15]) was 13.3 µM (active). The IC50 [16] was 3.05 µM (active), the IC50 [17] was 50 µM (inactive) and the IC50 [18] was 6.5 µM (active). For the same molecule, the IC50 [19] was 6.45 µM (active), the IC50 [20] was 6.16 µM (active) and the IC50 [21] was 36.6 µM (inactive).
